# Paper PMC1810525, “Antagonism of the prostaglandin D2 receptor CRTH2 attenuates asthma pathology in mouse eosinophilic airway inflammation” (Respiratory Research, 2007)
# How the values were obtained:
# mTP [1] = target: T1, mTP (Mus musculus, UniProt P30987); assay: Inositol phosphate accumulation assay, HEK cells transfected with mTP (Schild analysis vs U46619); format: cell-based
# T1 construct: expressed in transfected cells; host or cells: HEK293 (transient, pcDNA3.1(+))
# T1 sequence (P30987 1-341): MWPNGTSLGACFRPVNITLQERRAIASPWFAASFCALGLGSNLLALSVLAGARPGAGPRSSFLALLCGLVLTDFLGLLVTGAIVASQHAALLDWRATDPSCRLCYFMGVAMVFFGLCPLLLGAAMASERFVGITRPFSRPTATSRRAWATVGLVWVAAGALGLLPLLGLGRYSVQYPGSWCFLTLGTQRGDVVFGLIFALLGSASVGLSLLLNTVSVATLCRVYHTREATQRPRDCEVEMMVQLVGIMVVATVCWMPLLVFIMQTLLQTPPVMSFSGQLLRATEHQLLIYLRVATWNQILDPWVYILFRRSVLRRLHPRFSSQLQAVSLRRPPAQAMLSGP
# From the text: (§1) The coding sequence of mCRTH2 (genbank accession no. AF054507) was amplified by PCR from mouse hippocampus cDNA and inserted into the pcDNA3.1(+) expression vector (invitrogen). A HEK293 cell line, stably expressing mCRTH2 (hereafter referred to as mCRTH2-HEK cells) was generated under G418 (Gibco #11811) selection and used as described below in whole cell binding and functional inositol phosphate accumulation assays. The coding sequence of mTP (genbank accession no. D10849) was amplified by PCR from mouse spleen cDNA and inserted into pcDNA3.1(+). HEK293 cells were transiently transfected with mTP as described and assayed after 48 hr as outlined below.
# mCRTH2-HEK or HEK cells transiently transfected with mTP were seeded at a density of 30.000 cells/well in poly-D-lysine coated 96-well tissue culture plates and labeled by overnight incubation in medium containing 5 μCi myo- [2-^3H]-inositol (TRK911, Amersham Biosciences). After washing, cells were stimulated with the respective ligands in the presence of 5 mM LiCl (HBSS, GIBCO cat. 14025–050, 45 min, 37°C) and the inositol phosphate fraction was quantified using a scintillation proximity assay (SPA) as described previously. To facilitate inositol phosphate generation by the Gi-selective CRTH2 receptor, mCRTH2-HEK cells were transiently transfected with a promiscuous Gα protein [29].
# was performed using the Prism 3.0 software (GraphPad Software, San Diego) as described previously with the following exceptions: Binding data from competition binding assays were normalized to percent of specific binding of [^3H]PGD2 or [^3H]SQ29548 and the Ki was then determined using the Cheng-Prusoff equation Ki = IC50/(1+L/Kd), where L is the concentration of radioactive ligand and Kd is its dissociation constant. For Schild analysis, global fitting using the Gaddum/Schild competitive interaction model was applied after the functional concentration-response curves for the agonists PGD2 or U46619 in the absence or presence of various antagonist concentrations were normalized to percent of the maximal response obtained by agonist alone.
# [2] = system: OVA-challenged BALB/c mice; assay: Mouse model of allergic asthma (OVA), bronchoalveolar lavage eosinophils; format: in vivo; settings: 5 mg/kg orally twice daily, 24 hr after second challenge, allergen/vehicle 1.0 ± 0.2 %
# From the text: Female BALB/c mice about 6 weeks of age (MoB A/S; Ry, Denmark) were kept in well-controlled animal housing facilities and fed ad libitum. The study was approved by the Regional Ethics Committee in Malmoe-Lund, Sweden. […] Sigma) at day 0 as described previously. […] Control animals received saline challenge. Animals were sacrificed 24 hr after the last allergen challenge by pentobarbital i.p followed by bronchoalveolar lavage (BAL) and lung tissue sampling. In preliminary studies it was ascertained that daily allergen challenges for only a few days sufficed to produce a significant airway tissue eosinophilia as well as goblet cell hyperplasia. On days 14 and 15 mice were treated twice daily with TM30089 and ramatroban (BAY3405), 5 mg/kg orally. […] Drugs were administered 30 minutes before and 4 hr after each challenge. The dose of ramatroban was selected in accord with previous reports. […] The total number of cells was quantified using a […] (NucleoCounter®, Chemometec A/S, Allerod, Denmark) and 5 × 10^5 cells cytocentrifuged to microscope slides. Differential cell counts were performed on May-Grünwald Giemsa stained slides and percentage of eosinophils, lymphocytes, neutrophils, and macrophages determined by counting 200–300 cells in a blinded manner. […]
# mTP [3] = target: T1, mTP; assay: mTP whole cell competition binding ([3H]SQ29548); settings: displacement of [3H]SQ29548, HEK cells transfected with mTP
# From the text: as §1
# Binding assays were performed essentially as described previously. […] Total and nonspecific binding were determined in the absence and presence of 10 μM PGD2 for mCRTH2 and 10 μM U46619 for mTXA2 receptors.
# was performed using the Prism 3.0 software (GraphPad Software, San Diego) as described previously with the following exceptions: Binding data from competition binding assays were normalized to percent of specific binding of [^3H]PGD2 or [^3H]SQ29548 and the Ki was then determined using the Cheng-Prusoff equation Ki = IC50/(1+L/Kd), where L is the concentration of radioactive ligand and Kd is its dissociation constant. […]
Structure (SMILES),effect on signaling of mTP (mTP [1]; InsP functional assay),BALF eosinophils [2],pKi mTP (mTP [3]),"Schild slope mTP (mTP [1]; Schild analysis, U46619 concentration-response, InsP)","Kb (mTP [1]; Schild analysis, U46619 concentration-response, InsP, read-out: pA2 mTP (converted))",Ki (mTP [3]; read-out: pKi mTP (converted))
CN(C1CCc2c(c3ccccc3n2CC(=O)O)C1)S(=O)(=O)c1ccc(F)cc1 (stereo not shown) [TM30089],does not interfere with signaling of mTP,0.5 ± 0.01%,5.30 ± 0.03,–,–,–
"O=C(O)CCn1c2c(c3ccccc31)C[C@H](NS(=O)(=O)c1ccc(F)cc1)CC2 [ramatroban, reference compound]",–,0.4 ± 0.01%,–,1.35 ± 0.06,0.437 nM,1.2 nM
